Measurements reported in US6841366B1, “Biotin biosynthesis in bacillus subtilis” (DSM IP Assets B.V., priority 1993, dated 2005).

Assays:
B. subtilis PY79 = assay: Crystal of biotin analog on plates, growth inhibition; type: cell-based; conditions: for Growth inhibition around crystal, zones of clearing: EMS-mutagenized PY79, TBAB plates, overnight at 37° C.; for Zones of killing around crystal: PY79, EMS1, EMS2 on TBAB, BIOS or MIN plates, after 24 h
From the text: Biotin analogs were used to select for strains that were deregulated for biotin production. Among the mutations sought were those in a potential homolog of the E. coli birA gene. However, it is expected that selection for resistance to biotin analogs can also yield strains with mutations in the operator site(s) of birA, or in genes encoding functions responsible for the transport of the analogs into the cell. Analog-resistant mutants can also contain a gene or genes that encode enzymes resistant to inhibitors including, but not limited to, feedback inhibitors. Several biotin analogs (homobiotin, α-dehydrobiotin, and 5(2-thienyl)pentanoic acid) were obtained from Nippon Roche KK (Kanagsua, Japan). Mutagenized cells of B. subtilis were plated on TBAB (Difco Tryptose Blood Agar Base, cat. no. 0232-01-9) plates containing a crystal of each biotin analog.
An additional 27 mutants were selected subsequently in similar plate screenings for their resistance to the analogs homobiotin (HB) and α-dehydrobiotin (α-DB). For this latter selection, B. subtilis PY79 cultures were subjected to mutagenesis with EMS in two independent experiments. […] Overnight cultures of PY79, EMS1, and EMS2 grown in rich medium were plated on TBAB (rich), BIOS (biotin free) or MIN (glucose-minimal) plates and a crystal of homobiotin or α-dehydrobiotin was placed on each of the plates. […] Individual colonies were picked from homobiotin plates or α-dehydrobiotin plates and restreaked on BIOS plates containing α-dehydrobiotin or homobiotin.

[1] = system: B. subtilis birA/azl^r strains; assay: Screen of parents and Trp+ transductants for homobiotin resistance; type: cell-based; set-up: key to Homobiotin resistant/sensitive: R: resistant; S: sensitive
From the text: The birA mutation from either HB3 or α-DB16 was introduced into either PA3 or PA6 by a two step transduction process. First, PA3 and PA6 were made Trp^− by transduction with trpE::Tn917lac (Perkins and Youngman, (Proc. Nat'l Acad. Sci USA 83:140-144 (1986)) selecting for erythromycin resistance. The birA mutations were transduced from HB3 or α-DB16, selecting for Trp^+. Parents and Trp^+ transductants were screened for homobiotin resistance and azelaic acid resistance. PA6 was homobiotin sensitive, so double mutants could be identified among Trp^+ transductants by screening for homobiotin resistant colonies. Only about 60% of Trp^+ transductants were also homobiotin resistant (this may be due to Tn917 distortion of the map distance between birA and trpE normally 90% linkage by transduction). PA3 was resistant to homobiotin, so direct identification of double mutants was not possible. However, 60% of the transductants were double mutants as judged by increased biotin secretion, see below.

[2] = system: B. subtilis PY79 and azelaic acid resistant mutants; assay: Growth inhibition by azelaic acid, minimal agar; type: cell-based; conditions: addition of 1 μg/l biotin
From the text: Azelaic acid, a straight chain C9 dicarboxylic acid, is a homolog of pimelic acid and is thought to be an intermediate in the conversion of oleic acid to pimelic acid (see Ohsugi and Inoue (1981) Agric. Biol. Chem. 45: 2355-2356, hereby incorporated by reference).
Seven spontaneous mutants that outgrew the background of PY79 on 2 g/l Azelaic acid were isolated. The resistance to azelaic acid appeared to be a stable trait in all but one case (see below). The seven mutants were provisionally named PA1-PA7 (PY79 Azelaic acid resistant). PA1 through PA7 were grown in test tubes in VY medium, and biotin production was assayed using E. coli indicator strains (Table 15). The mutants fell into two classes, those that yielded more biotin than PY79 (PA5, PA6) and those that were similar to PY79 (PA1, 2, 3, and 7). PA4 appeared to be either unstable or not a true mutant and was dropped from further study. Applicants also noticed that the mutants fell into two classes with respect to colony size on minimal agar with 2 g/l azelaic acid, and that these two classes corresponded to the two classes of biotin producers (Table 11). The mutants with the most biotin in the supernatant (PA5 and PA6) gave small colonies, while the biotin non-secreters, PA1, 2, 3, and 7, gave large colonies. PA1 and PA3 secreted a compound that cross-fed PY79 (i.e., reversed the azelaic acid inhibition of PY79) on minimal plates containing 2 g/l azelaic acid.

SPβ::bioW-lacZ = assay: SPβ-borne single-copy bioW-lacZ translational fusion, β-galactosidase assay; type: cell-based, B. subtilis
Experimental: Other strains, in addition to the lacZ fusion strain of Example IVA, can be constructed for deciphering biotin regulatory mechanisms. For example, Applicants recognized that insertion of the plasmid-borne bioW-lacZ fusion into the chromosome causes technical problems because the integrated plasmid amplifies in copy number. Thus the expression of the bioW-lacZ fusion at single copy-number and at a site distinct from the bio operon was tested by introducing the fusion into a modified SPβ specialized transducing phage (see, e.g., Zuber et al., J. Bacteriol. 169:2223-2230, 1987, hereby incorporated by reference).
Two isolates of PY79 (SPβ::bioW-lacZ) and BI421 (SPβ::bioW-lacZ) were assayed for β-galactosidase activity as described above.
Biotin regulation was also examined in two independently isolated biotin analog-resistant mutants. HB3 contains a spontaneous birA mutation and α-DB9 contains an α-dehydrobiotin resistant mutation unlinked to either bio or birA. These strains were transduced, grown, and assayed as described above, except that α-DB9 (SPβ::bioW-lacZ) was assayed during mid-exponential growth.

PY79 bioI::cat = assay: Growth of bioI::cat mutants on biotin-free medium with supplements; type: cell-based, B. subtilis; conditions: biotin 33 μg/ml
[3] = system: bioW-lacZ translational fusion; assay: bioW-lacZ translational fusion integrated at the bio locus, β-galactosidase liquid ONPG assay; type: cell-based, B. subtilis
From the text: A translational lacZ fusion was constructed to confirm the activity and regulation of the putative promoter and regulatory region, and to assess the relative level of expression of the B. subtilis biotin operon in a variety of contexts. This was accomplished by inserting a 3.1 kb BamHI-BglII fragment containing a promoter-less lacZ coding region into the BamHI site of pBIO350, to give pBIO397 and pBIO398.
To test the bioW-lacZ fusion for biotin-regulated expression in B. subtilis, Bio^+ partial diploids were constructed. The cat cassette was cloned into pBIO397 using the single SmaI site located within the polylinker region downstream from the lacZ gene. One recombinant plasmid, pBIO397cat, with the cat gene oriented in the same direction as the translational fusion, was used to generate Bio^+ partial diploids. Competent cells of the prototrophic B. subtilis strain PY79 were transformed with pBIO397cat plasmid DNA selecting for Cm^r. Transformants should only arise by recombination into the chromosome. This leaves an intact copy of the bio operon, allowing activity of the lac fusion to be assessed in the absence of added biotin.
The promoter of the BamHI to PstI fragment cloned in pBIO350 is regulated by biotin. Two Cm^r Bio^+ partial diploids containing the bioW-lacZ fusion were tested for β-galactosidase activity in biotin-free medium in the presence or absence of biotin (100 μg/liter). In liquid ONPG assays, both strains were regulated specifically by biotin. The level of β-galactosidase was repressed in the presence of biotin and induced in its absence to 24 to 85-fold higher specific activity (Table 3). This strain with the bioW::lacZ fusion integrated at the bio operon has also been used to isolate new biotin analog-resistant mutants (see below) on X-gal indicator plates.

O=C(O)/C=C/CCC1SCC2NC(=O)NC21 (stereo not drawn) [α-dehydrobiotin]
Growth inhibition around crystal, zones of clearing (B. subtilis PY79): inhibited the growth
Zones of killing around crystal (B. subtilis PY79): zones of killing were observed

O=C(O)CCCCC[C@@H]1SC[C@@H]2NC(=O)N[C@@H]21 [Homobiotin, homobiotin]
Zones of killing around crystal (B. subtilis PY79): zones of killing were observed
Homobiotin resistant/sensitive ([1]; parent PA3, birA donor HB3, isolate 1): R
Homobiotin resistant/sensitive ([1]; parent PA3, birA donor HB3, isolate 2): R
Homobiotin resistant/sensitive ([1]; parent PA3, birA donor α-DB16, isolate 1): R
Homobiotin resistant/sensitive ([1]; parent PA6, birA donor HB3, isolate 2): R
Homobiotin resistant/sensitive ([1]; parent PA6, birA donor HB3, isolate 6): R
Homobiotin resistant/sensitive ([1]; parent PA6, birA donor α-DB16, isolate 8): R
Homobiotin resistant/sensitive ([1]; parent PA6, birA donor α-DB16, isolate 14): R
Homobiotin resistant/sensitive ([1]; strain HB3): R
Homobiotin resistance of PA3 ([1]; strain PA3): resistant
Homobiotin resistant/sensitive ([1]; strain PA3): R
Homobiotin resistant/sensitive ([1]; strain PA6): S
Homobiotin sensitivity of PA6 ([1]; strain PA6): sensitive
Homobiotin resistant/sensitive ([1]; strain PY79): S
Homobiotin resistant/sensitive ([1]; strain α-DB16): R

O=C(O)CCCCc1cccs1 [5(2-thienyl) pentanoic acid, 5(2-thienyl)pentanoic acid]
Growth inhibition around crystal, zones of clearing (B. subtilis PY79): inhibited the growth

O=C(O)CCCC[C@@H]1SC[C@@H]2NC(=O)N[C@@H]21 [Biotin]
Reversal of azelaic acid growth inhibition of wild-type B. subtilis [2]: reversed
Fold Increase of β-galactosidase activity, −Biotin over +Biotin (100 μg/l) (SPβ::bioW-lacZ; BI421 (SPβ::bioW-lacZ)/#1 (birA)): 1.5 Fold
β-galactosidase activity +Biotin (100 μg/l) (SPβ::bioW-lacZ; BI421 (SPβ::bioW-lacZ)/#1 (birA), OD600 1.00-0.936): 0.67 Miller Units
Fold Increase of β-galactosidase activity, −Biotin over +Biotin (100 μg/l) (SPβ::bioW-lacZ; BI421 (SPβ::bioW-lacZ)/#3 (birA)): 0.9 Fold
β-galactosidase activity +Biotin (100 μg/l) (SPβ::bioW-lacZ; BI421 (SPβ::bioW-lacZ)/#3 (birA), OD600 1.07-0.92): 0.96 Miller Units
Fold Increase of β-galactosidase activity, −Biotin over +Biotin (100 μg/l) (SPβ::bioW-lacZ; HB3 (SPβ::bioW-lacZ)/#1 (birA)): 1.3 Fold
β-galactosidase activity +Biotin (100 μg/l) (SPβ::bioW-lacZ; HB3 (SPβ::bioW-lacZ)/#1 (birA), OD600 1.068-1.076): 0.24 Miller Units
Fold Increase of β-galactosidase activity, −Biotin over +Biotin (100 μg/l) (SPβ::bioW-lacZ; HB3 (SPβ::bioW-lacZ)/#3 (birA)): 0.8 Fold
β-galactosidase activity +Biotin (100 μg/l) (SPβ::bioW-lacZ; HB3 (SPβ::bioW-lacZ)/#3 (birA), OD600 1.213-1.320): 0.18 Miller Units
β-galactosidase repressed in the presence of biotin, induced in the absence of biotin (SPβ::bioW-lacZ; PY79 (SPβ::bioW-lacZ)): 9-15 fold
Fold Increase of β-galactosidase activity, −Biotin over +Biotin (100 μg/l) (SPβ::bioW-lacZ; PY79 (SPβ::bioW-lacZ)/#1): 15 Fold
β-galactosidase activity +Biotin (100 μg/l) (SPβ::bioW-lacZ; PY79 (SPβ::bioW-lacZ)/#1, OD600 1.04-1.08): 0.04 Miller Units
Fold Increase of β-galactosidase activity, −Biotin over +Biotin (100 μg/l) (SPβ::bioW-lacZ; PY79 (SPβ::bioW-lacZ)/#3): 9 Fold
β-galactosidase activity +Biotin (100 μg/l) (SPβ::bioW-lacZ; PY79 (SPβ::bioW-lacZ)/#3, OD600 0.988-0.960): 0.06 Miller Units
Fold Increase of β-galactosidase activity, −Biotin over +Biotin (100 μg/l) (SPβ::bioW-lacZ; α-D89 (SPβ::bioW-lacZ)/#1): 9.2 Fold
β-galactosidase activity +Biotin (100 μg/l) (SPβ::bioW-lacZ; α-D89 (SPβ::bioW-lacZ)/#1, OD600 0.892-0.528, one measurement): 0.18 Miller Units
Fold Increase of β-galactosidase activity, −Biotin over +Biotin (100 μg/l) (SPβ::bioW-lacZ; α-D89 (SPβ::bioW-lacZ)/#3): 12.3 Fold
β-galactosidase activity +Biotin (100 μg/l) (SPβ::bioW-lacZ; α-D89 (SPβ::bioW-lacZ)/#3, OD600 1.344-1.200): 0.11 Miller Units
Growth of bioI::cat insertion colonies (PY79 bioI::cat): grew to wild-type levels
Fold Increase of β-galactosidase activity, −Biotin over +Biotin (100 μg/l) ([3]; PY79(bioW-lacZ)12A, Late Log): 24 Fold
β-galactosidase activity +Biotin (100 μg/l) ([3]; PY79(bioW-lacZ)12A, Late Log (OD600 0.7-0.8)): 0.47 Miller Units
Fold Increase of β-galactosidase activity, −Biotin over +Biotin (100 μg/l) ([3]; PY79(bioW-lacZ)12A, Late Stationary): 53 Fold
β-galactosidase activity +Biotin (100 μg/l) ([3]; PY79(bioW-lacZ)12A, Late Stationary (OD600 1.4-1.6)): 0.13 Miller Units
Fold Increase of β-galactosidase activity, −Biotin over +Biotin (100 μg/l) ([3]; PY79(bioW-lacZ)12A, Stationary): 65 Fold
β-galactosidase activity +Biotin (100 μg/l) ([3]; PY79(bioW-lacZ)12A, Stationary (OD600 1.1-1.4)): 0.17 Miller Units
Fold Increase of β-galactosidase activity, −Biotin over +Biotin (100 μg/l) ([3]; PY79(bioW-lacZ)14A, Late Log): 33 Fold
β-galactosidase activity +Biotin (100 μg/l) ([3]; PY79(bioW-lacZ)14A, Late Log (OD600 0.7--0.8)): 0.64 Miller Units
Fold Increase of β-galactosidase activity, −Biotin over +Biotin (100 μg/l) ([3]; PY79(bioW-lacZ)14A, Late Stationary): 85 Fold
β-galactosidase activity +Biotin (100 μg/l) ([3]; PY79(bioW-lacZ)14A, Late Stationary (OD600 1.213-1.320)): 0.10 Miller Units
Fold Increase of β-galactosidase activity, −Biotin over +Biotin (100 μg/l) ([3]; PY79(bioW-lacZ)14A, Stationary): 82 Fold
β-galactosidase activity +Biotin (100 μg/l) ([3]; PY79(bioW-lacZ)14A, Stationary (OD600 1.1-1.4)): 0.15 Miller Units
